Test results as given in patent US20260008776A1 (HANGZHOU POLYMED BIOPHARMACEUTICALS, INC., priority 2023, published 2026).
Like-named read-outs stand apart in the source and are kept apart here.

Legend:
[1] = format: physicochemical
Description: The glass dishes or glass vials were then placed in different environments of the constant temperature and humidity chamber, with conditions including: illumination: 4500±500 Lux (open); high temperature: 60° C.

[2] = Solubility test of salts in pH buffers, water and physiological solutions; format: physicochemical
Description: The solubility of dominant salts in different pH buffers, water, and physiological solutions was determined. The specific steps for solubility determination are as follows: […] The vials were sealed, transferred to a magnetic stirrer, and maintained at 25° C. with a stirring rate of 500 rpm for 24 hours. The dissolution status in sample vials was recorded during the test. After 24 hours, approximately 1 mL of the suspension was filtered, and the filtrate was collected for solubility test via HPLC analysis. The pH value of the filtrate sample was measured using a pH meter.

DVS test of salt forms = format: physicochemical
From the text: 1. The instrument sample pan was first tared and balanced.
3. The program was run: starting from 0% humidity as the initial point, slowly increasing to 90%, then returning to 0% to complete the cycle 1; rising again to 90% and decreasing back to 0% to conclude, completing the cycle 2 (as shown in FIGS. 35-36).

[3] = High Relative Humidity (RH = 90 ± 5%, Open, 25° C.), 5 Days
[4] = High Relative Humidity (RH = 90 ± 5%, Open, 25° C.), 11 Days
[5] = High Temperature (60° C., Sealed), 5 Days
[6] = High Temperature (60° C., Sealed), 11 Days
[7] = Strong Illumination (Open), 5 Days
[8] = Strong Illumination (Open), 11 Days

Compound: CC(C)(O)CCn1cc2cc(NC(=O)c3coc(-c4ccnc(C(F)(F)F)c4)n3)c(C(C)(C)O)cc2n1.O=P(O)(O)O [crystal form A of phosphate salt]
- Color Change [1, 3]: No Change
- Purity [1, 3]: 99.66%
- Salt Type [1, 3]: No Change
- Color Change [1, 4]: No Change
- Purity [1, 4]: 99.33%
- Salt Type [1, 4]: No Change
- Color Change [1, 5]: Turn Yellow
- Purity [1, 5]: 99.49%
- Salt Type [1, 5]: No Change
- Color Change [1, 6]: Turn Yellow
- Purity [1, 6]: 99.49%
- Salt Type [1, 6]: No Change
- Purity ([1]; Initial State): 99.18%
- Color Change ([1]; Initial State (colour)): White
- Color Change [1, 7]: No Change
- Purity [1, 7]: 99.67%
- Salt Type [1, 7]: No Change
- Color Change [1, 8]: No Change
- Purity [1, 8]: 99.01%
- Salt Type [1, 8]: No Change
- Solubility at 25° C. ([2]; Buffer pH = 6.8, 24 hours): <LOD
- Solubility at 25° C. ([2]; FaSSIF (pH = 6.5), 24 hours): <LOD
- Solubility at 25° C. ([2]; FeSSIF (pH = 5.0), 24 hours): <LOD
- Solubility at 25° C. ([2]; SGF (pH = 1.2), 24 hours): <LOD
- Solubility at 25° C. ([2]; Water, 24 hours): <LOD
- Change of the sample before and after the DVS test (DVS test of salt forms): no changes are observed
- Hygroscopicity (DVS), in words (DVS test of salt forms; 0% to 90% humidity, two cycles): low hygroscopicity
- Water Sorption at 90% Relative Humidity (DVS test of salt forms; 90% Relative Humidity): 0.80% Water Sorption at 90% Relative Humidity
- Desorption (DVS test of salt forms; cycle 1, 0% humidity): −0.04%
- Sorption (DVS test of salt forms; cycle 1, 0% humidity): 0.00%
- Desorption (DVS test of salt forms; cycle 1, 10% humidity): −0.01%
- Sorption (DVS test of salt forms; cycle 1, 10% humidity): 0.02%
- Desorption (DVS test of salt forms; cycle 1, 20% humidity): 0.01%
- Sorption (DVS test of salt forms; cycle 1, 20% humidity): 0.04%
- Desorption (DVS test of salt forms; cycle 1, 30% humidity): 0.04%
- Sorption (DVS test of salt forms; cycle 1, 30% humidity): 0.06%
- Desorption (DVS test of salt forms; cycle 1, 40% humidity): 0.09%
- Sorption (DVS test of salt forms; cycle 1, 40% humidity): 0.10%
- Desorption (DVS test of salt forms; cycle 1, 50% humidity): 0.15%
- Sorption (DVS test of salt forms; cycle 1, 50% humidity): 0.14%
- Desorption (DVS test of salt forms; cycle 1, 60% humidity): 0.21%
- Sorption (DVS test of salt forms; cycle 1, 60% humidity): 0.20%
- Desorption (DVS test of salt forms; cycle 1, 70% humidity): 0.31%
- Sorption (DVS test of salt forms; cycle 1, 70% humidity): 0.29%
- Desorption (DVS test of salt forms; cycle 1, 80% humidity): 0.46%
- Sorption (DVS test of salt forms; cycle 1, 80% humidity): 0.44%
- Desorption (DVS test of salt forms; cycle 1, 90% humidity): 0.80%
- Sorption (DVS test of salt forms; cycle 1, 90% humidity): 0.80%
- Desorption (DVS test of salt forms; cycle 2, 0% humidity): −0.05%
- Sorption (DVS test of salt forms; cycle 2, 0% humidity): −0.04%
- Desorption (DVS test of salt forms; cycle 2, 10% humidity): −0.03%
- Sorption (DVS test of salt forms; cycle 2, 10% humidity): −0.02%
- Desorption (DVS test of salt forms; cycle 2, 20% humidity): 0.00%
- Sorption (DVS test of salt forms; cycle 2, 20% humidity): 0.01%
- Desorption (DVS test of salt forms; cycle 2, 30% humidity): 0.03%
- Sorption (DVS test of salt forms; cycle 2, 30% humidity): 0.04%
- Desorption (DVS test of salt forms; cycle 2, 40% humidity): 0.07%
- Sorption (DVS test of salt forms; cycle 2, 40% humidity): 0.07%
- Desorption (DVS test of salt forms; cycle 2, 50% humidity): 0.13%
- Sorption (DVS test of salt forms; cycle 2, 50% humidity): 0.12%
- Desorption (DVS test of salt forms; cycle 2, 60% humidity): 0.20%
- Sorption (DVS test of salt forms; cycle 2, 60% humidity): 0.18%
- Desorption (DVS test of salt forms; cycle 2, 70% humidity): 0.29%
- Sorption (DVS test of salt forms; cycle 2, 70% humidity): 0.27%
- Desorption (DVS test of salt forms; cycle 2, 80% humidity): 0.45%
- Sorption (DVS test of salt forms; cycle 2, 80% humidity): 0.43%
- Desorption (DVS test of salt forms; cycle 2, 90% humidity): 0.79%
- Sorption (DVS test of salt forms; cycle 2, 90% humidity): 0.79%

Compound: CC(C)(O)CCn1cc2cc(NC(=O)c3coc(-c4ccnc(C(F)(F)F)c4)n3)c(C(C)(C)O)cc2n1.O=S(=O)(O)O [crystal form A of sulfate salt]
- Color Change [1, 3]: Turn Yellow
- Purity [1, 3]: 99.08%
- Salt Type [1, 3]: No Change
- Purity [1, 4]: 99.14%
- Salt Type [1, 4]: No Change
- Color Change [1, 5]: Turn Yellow
- Purity [1, 5]: 99.74%
- Salt Type [1, 5]: No Change
- Color Change [1, 6]: Turn Yellow
- Purity [1, 6]: 98.39%
- Salt Type [1, 6]: No Change
- Purity ([1]; Initial State): 99.12%
- Color Change ([1]; Initial State (colour)): White
- Color Change [1, 7]: No Change
- Purity [1, 7]: 99.35%
- Salt Type [1, 7]: No Change
- Color Change [1, 8]: No Change
- Purity [1, 8]: 99.26%
- Salt Type [1, 8]: No Change
- Solubility at 25° C. ([2]; Buffer pH = 1.0, 24 hours): 179.03 µg/mL
- Solubility at 25° C. ([2]; Buffer pH = 6.8, 24 hours): <LOD
- Solubility at 25° C. ([2]; FaSSIF (pH = 6.5), 24 hours): <LOD
- Solubility at 25° C. ([2]; FeSSIF (pH = 5.0), 24 hours): 19.45 µg/mL
- Solubility at 25° C. ([2]; SGF (pH = 1.2), 24 hours): 2.88 µg/mL
- Solubility at 25° C. ([2]; Water, 24 hours): 1.34 µg/mL
